Data published in publication PMC5301048, “Selection and early clinical evaluation of the brain‐penetrant 11β‐hydroxysteroid dehydrogenase type 1 (11β‐HSD1) inhibitor UE2343 (Xanamem™)” (British Journal of Pharmacology, 2017).
Values after ≈ are worked out from the molar mass of the structure shown. Where two headings read alike, the source gives them in different places.

Experiments:
[1] = Tissue exposure measurements in rats (plasma and brain); assay type: in vivo; conditions: rat; for Kp / Cmax: male, Sprague Dawley; for Cmax: plasma; for Cmax / Brain Cmax / Plasma Cmax: mean ± SD
Method: The circulating plasma levels and tissue distribution of compounds were determined according to the method described in WO2011135276 (Webster et al., 2011a). Animals were group‐housed, had free access to food and water and were maintained in accordance with UK Home Office regulations. The animal work was conducted under UK Home Office Project Licence no. PPL 60/3915.
Compounds were prepared in 0.9% saline containing 2% DMSO (v^.v^‐1) and 38% PEG400 (v^.v^‐1) and administered to male Sprague Dawley rats by oral gavage such that the final concentration of compound was 10 mg·kg^−1. Rats (n = 3 per time point) were killed by decapitation at 1, 4 and 6 h post dosing, and trunk blood and tissues (liver, adipose and brain) were excised. Blood samples at 0.5 and 2 h post dosing were taken by a tail nick from the 4 and 6 h rats respectively.
Compounds were triple extracted from plasma (prepared from blood by a high speed centrifugation step) and spiked with 1 μg of a standard compound using ethyl acetate. Extracts were dried under nitrogen and re‐suspended in 60% methanol/40% ammonium acetate (5 mM).
A known weight of tissue was homogenized in 3 volumes of Krebs buffer. The compound was triple extracted with ethyl acetate from the supernatant of a low speed spin spiked with […] of a standard compound. Extracts were dried under nitrogen and re‐suspended in 60% methanol/40% ammonium acetate (5 mM).
Samples from plasma and tissue were analysed by TSQ Quantum Discovery Tandem Mass Spectrometer and Surveyor Liquid Chromatogram (Thermo, Hemel‐Hempstead, UK). Then 10 μL of each sample was injected in a mobile phase consisting of 60% methanol/40% ammonium acetate (5 mM) at a flow rate of 0.5 mL·min^−1. The column used was a BDS hypersil C18, 50 × 2.1 mm with a 5 μm particle size.
Each compound was tuned with a spray voltage of 3000 V and a capillary temperature of 300°C, and values for tube lens, CID and product ions were determined. The peak area for each compound and for the internal standard was determined, and the concentration of compound ^. g^‐1 of tissue or mL^‐1 of plasma was calculated by comparison of the peak area ratio to a standard curve.

[2] = Plasma protein binding, human plasma; assay type: in vitro ADME; conditions: for Plasma protein binding (% unbound), human: mean ± SD [n]
Method: Plasma protein binding was determined using pooled human plasma according to the method described in WO2011135276 (Webster et al., 2011a).

[3] = target: T1, human 11β‐HSD1 (Homo sapiens, UniProt P28845); test: Inhibition of human 11β-HSD1 in stably transfected HEK293 cells; assay type: cell-based; conditions: HEK293 cells; mean ± SD [n]; read-out: Human 11β‐HSD1 IC50 in HEK293 cells
T1 construct: a construct containing the full‐length gene coding for the human 11β‐HSD1 enzyme; expressed in transfected cells; host or cells: HEK293
T1 sequence (P28845 whole entry): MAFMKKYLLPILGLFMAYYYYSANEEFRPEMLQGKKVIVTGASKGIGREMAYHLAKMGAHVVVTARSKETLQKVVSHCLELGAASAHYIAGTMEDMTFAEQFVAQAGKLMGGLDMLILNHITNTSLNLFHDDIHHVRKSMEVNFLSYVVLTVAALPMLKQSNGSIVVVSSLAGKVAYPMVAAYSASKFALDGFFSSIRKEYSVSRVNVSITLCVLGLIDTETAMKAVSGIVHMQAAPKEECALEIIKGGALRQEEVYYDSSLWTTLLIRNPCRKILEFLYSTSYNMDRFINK
Method: Inhibition of human 11β‐HSD1 was determined in HEK293 cells stably transfected with a construct containing the full‐length gene coding for the human 11β‐HSD1 enzyme according to the protocol described by Sooy et al., 2010.

[4] = Aqueous solubility at pH 7.4; assay type: physicochemical; conditions: thermodynamic from solid, pH 7.4, room temperature, mean ± SD [n]
Method: The concentration was quantified by HPLC with reference to a standard calibration curve. The solubility was calculated using the peak areas determined by integration of the peak found at the same retention time as the principal peak in the standard injection.

[5] = in vivo; conditions: male, Sprague Dawley, rat
Method: Pharmacokinetic studies were carried out at Quotient Bioresearch, UK. For both i.v. and p.o. administration, compounds were prepared in 0.9% saline containing 2% DMSO (v^.v^‐1) and 38% PEG400 (v^.v^‐1). Solutions were passed through 0.22 μm filters prior to administration. Animals were given ad libitum access to food and water throughout the study. For i.v. administration three male Sprague Dawley rats each received 1 mg·kg^−1 of compound by tail vein injection (dose volume 5 mL·kg^−1). Serial blood samples were taken from a lateral tail vein 5, 15, 30 min, 1, 2, 4, 6 and 8 h post i.v. administration, and stored in individual EDTA containers. Blood samples were flash frozen in liquid nitrogen and stored at −20°C prior to analysis. For p.o. administration, five male Sprague Dawley rats were dosed with compound at 5 mg·kg^−1 (dose volume 10 mL·kg^−1). Serial blood samples were taken from a lateral tail vein 15, 30 min, 1, 2, 4, 6 and 8 h post p.o. administration, and stored in individual EDTA containers. Blood samples were flash frozen in liquid nitrogen and stored at −20°C prior to analysis. Blood samples were thawed at ambient temperature and vortex mixed thoroughly. A representative aliquot of each blood sample was diluted 1:1 v^.v^‐1 with HPLC grade water prior to protein precipitation with acetonitrile containing diazepam internal standard (blood/water: acetonitrile ratio was 1:4 v^ v^‐1). Following vortex mixing and centrifugation (4°C, 15 min, 17 000 x g) a 100 μL aliquot of supernatant was diluted by addition of 50 μL HPLC grade water in a well of a 96‐well midi‐eppendorf plate. The plate was sealed and shaken on a plate shaker to ensure sample homogeneity. Samples were assayed against a series of matrix matched calibration curve standards by LC–MS/MS using a Sciex 3000 mass spectrometer. Pharmacokinetic parameters were derived by non‐compartmental analysis using WinNonLin pharmacokinetic software.

[6] = Microsomal stability, rat liver microsomes; assay type: in vitro ADME; conditions: mean ± SD [n]
Method: (§1) Microsomal stability was determined using pooled human, rat or dog liver microsomes according to the method described in WO2011135276 (Webster et al., 2011a).

[7] = Plasma protein binding, dog plasma; assay type: in vitro ADME; conditions: mean ± SD [n]
[8] = Plasma protein binding, rat plasma; assay type: in vitro ADME; conditions: mean ± SD [n]
[9] = Microsomal stability, dog liver microsomes; assay type: in vitro ADME; conditions: mean ± SD [n]
Method: as §1

[10] = Pharmacokinetics in dog (i.v. and p.o.); assay type: in vivo; conditions: Beagle, plasma
Method: Pharmacokinetic studies were carried out at Charles River, UK. For both i.v. and p.o. administration, compounds were prepared in 0.9% saline containing 2% DMSO (v^.v^‐1) and 38% PEG400 (v^.v^‐1). Solutions were passed through 0.22 μm filters prior to administration. Three Beagle dogs each received a single i.v. injection of compound 4 at a dose level of 1 mg·kg^−1. Following a washout period of 1 week, each animal received a single p.o. dose of compound 4 at a dose level of 5 mg·kg^−1.
After a washout period of 6 weeks, the same three dogs each received a single i.v. injection of compound 7 at a dose level of 1 mg·kg^−1. Following a washout period of 1 week, each animal received a single p.o. dose of compound 7 at a dose level of 5 mg·kg^−1.
Plasma samples were obtained up to 24 h post dose administration, and the concentration of each test item in plasma was determined using LC–MS/MS. Pharmacokinetic parameters were derived by non‐compartmental analysis using WinNonLin pharmacokinetic software.

[11] = Microsomal stability, human liver microsomes; assay type: in vitro ADME; conditions: mean ± SD [n]
Method: as §1

[12] = target: T2, hERG K+ channel (Homo sapiens, UniProt Q12809); test: hERG inhibition, IonWorks Quattro patch clamp; assay type: cell-based; conditions: Chinese hamster lung cells expressing hERG; mean ± SD [n]
T2 construct: Chinese hamster lung cell line stably expressing the full length hERG channel; host or cells: Chinese hamster lung cell line
T2 sequence (Q12809 whole entry): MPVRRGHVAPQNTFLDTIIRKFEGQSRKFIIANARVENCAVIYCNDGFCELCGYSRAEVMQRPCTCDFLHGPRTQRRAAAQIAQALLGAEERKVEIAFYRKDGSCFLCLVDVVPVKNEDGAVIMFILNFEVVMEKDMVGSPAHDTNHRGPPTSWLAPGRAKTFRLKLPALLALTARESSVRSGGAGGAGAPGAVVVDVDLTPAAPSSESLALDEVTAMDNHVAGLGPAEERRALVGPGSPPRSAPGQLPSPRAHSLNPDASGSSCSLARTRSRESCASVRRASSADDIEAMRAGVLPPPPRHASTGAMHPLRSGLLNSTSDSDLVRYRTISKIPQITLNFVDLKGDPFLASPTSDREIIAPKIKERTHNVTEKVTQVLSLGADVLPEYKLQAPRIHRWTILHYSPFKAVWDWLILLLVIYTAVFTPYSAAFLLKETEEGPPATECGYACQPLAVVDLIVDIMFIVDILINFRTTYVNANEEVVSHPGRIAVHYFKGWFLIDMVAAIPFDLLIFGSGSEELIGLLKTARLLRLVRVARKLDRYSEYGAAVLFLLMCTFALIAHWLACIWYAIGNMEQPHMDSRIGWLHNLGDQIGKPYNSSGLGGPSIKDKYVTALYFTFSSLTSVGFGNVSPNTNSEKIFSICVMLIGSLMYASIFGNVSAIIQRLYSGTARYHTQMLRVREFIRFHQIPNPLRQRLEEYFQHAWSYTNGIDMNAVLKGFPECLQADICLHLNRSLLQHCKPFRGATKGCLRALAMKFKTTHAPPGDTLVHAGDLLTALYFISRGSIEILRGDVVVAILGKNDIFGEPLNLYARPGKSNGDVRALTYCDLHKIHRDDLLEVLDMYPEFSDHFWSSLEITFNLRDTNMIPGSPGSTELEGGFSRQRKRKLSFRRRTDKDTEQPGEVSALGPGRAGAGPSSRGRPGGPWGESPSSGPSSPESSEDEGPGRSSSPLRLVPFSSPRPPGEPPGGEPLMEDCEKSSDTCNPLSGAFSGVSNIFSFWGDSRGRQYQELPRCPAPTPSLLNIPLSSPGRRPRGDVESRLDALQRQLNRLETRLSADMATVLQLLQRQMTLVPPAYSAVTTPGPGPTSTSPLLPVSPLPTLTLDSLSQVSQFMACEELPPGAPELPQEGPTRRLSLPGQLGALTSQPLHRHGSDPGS
Method: Testing was performed by Essen Instruments, Hertfordshire, UK. Compounds were tested for inhibition of the human ether a go‐go related gene (hERG) K+ channel in a Chinese hamster lung cell line stably expressing the full length hERG channel. Single cell ionic currents were measured in the perforated patch clamp configuration at room temperature using an IonWorks Quattro instrument. Eight‐point concentration–response curves were generated using threefold serial dilutions from the maximum final assay concentration. IC50 values were obtained from a four‐parameter logistic fit of the % inhibition data.

[13] = brain and plasma, po, 10 mg/kg, 10 mg·kg^−1 oral gavage, read-out: Brain : plasma ratio
[14] = po, 10 mg/kg, 10 mg·kg^−1 oral gavage

| SMILES | Kp [1, 13] | Cmax [1, 14] | Brain Cmax ([1]; 10 mg·kg^−1 oral gavage) | IC50 [3] | also measured |
| --- | --- | --- | --- | --- | --- |
| O=C(c1csc(-c2cn[nH]c2)c1)N1C2CCC1CC(O)(c1ccccc1)C2 (stereo not shown) [compound 1] | 0.07 | 419 ± 28 ng/mL | 29 ± 10 ng/mL | 22 ± 2 nM | Plasma protein binding (% unbound), human [2]: 10±0 % unbound; solubility ([4]; aqueous buffer): 6 µg/mL (≈ 15.8 µM); bioavailability [5]: 23%; half-life [5]: 0.9 ± 0.1 h; clearance ([5]; iv, 1 mg/kg): 34 ± 22 mL/min/kg |
| O=C(c1csc(-c2cn[nH]c2)c1)N1C2CCC1CC(O)(c1ccccn1)C2 (stereo not shown) [compound 2] | 0.02 | 1270 ± 330 ng/mL | 31 ± 12 ng/mL | 26 ± 8 nM |  |
| O=C(c1csc(-c2cn[nH]c2)c1)N1C2CCC1CC(O)(c1ncccc1Cl)C2 (stereo not shown) [compound 3] | 0.31 | 115 ± 48 ng/mL | 36 ± 12 ng/mL | 12 nM |  |
| O=C(c1csc(-c2cn[nH]c2)c1)N1C2CCC1CC(O)(c1cnccn1)C2 (stereo not shown) [compound 5] | 0.03 | 589 ± 161 ng/mL | 19 ± 17 ng/mL | 37 ± 3 nM |  |
| O=C(c1csc(-c2cn[nH]c2)c1)N1C2CCC1CC(F)(c1ccccn1)C2 (stereo not shown) [compound 6] |  |  | 108 ± 54 ng/mL | 22 ± 10 nM | Brain : plasma ratio ([1]; 10 mg·kg^−1 oral gavage): 0.27; Plasma Cmax ([1]; 10 mg·kg^−1 oral gavage): 399 ± 99 ng/mL |
| O=C(c1csc(-c2cn[nH]c2)c1)N1C2CCC1CC(F)(c1ccccn1)C2 (stereo not shown) [compound 7] | 0.24 |  | 374 ± 184 ng/mL | 7 ± 4 nM | Liver microsomal stability (% parent at 30 min), rat [6]: 45 ± 5 [3] % parent at 30 min; Kp ([1]; brain (relative to free plasma), oral, 10 mg·kg^−1, rat, rat plasma protein binding taken into account, read-out: brain : plasma free ratio): 2.45; Plasma Cmax ([1]; 10 mg·kg^−1 oral gavage): 1526 ± 212 ng/mL; Plasma protein binding (% unbound), dog [7]: 11 ± 0 [1] % unbound; Plasma protein binding (% unbound), human [2]: 11 ± 2 [2] % unbound; free fraction in plasma relative to the 3‐endo isomer (compound 6) ([2]; species not stated, in words): twofold greater; Plasma protein binding (% unbound), rat [8]: 10 ± 1 [2] % unbound; Liver microsomal stability (% parent at 30 min), dog [9]: 74 ± 1 [3] % parent at 30 min; clearance ([10]; iv, i.v. 1 mg·kg^−1, mean ± SD): 8.68 ± 2.03 mL/min/kg; half-life ([10]; mean ± SD): 3.21 ± 1.61 h; Cmax ([10]; po, p.o. 5 mg·kg^−1, mean ± SD): 3100 ± 908 ng/mL; AUC ([10]; po, p.o. 5 mg·kg^−1, mean ± SD, read-out: Oral AUC(0➔∞)): 9210 ± 2000 ng·h/mL; bioavailability ([10]; po, p.o. 5 mg·kg^−1 vs i.v. 1 mg·kg^−1, mean ± SD): 90 ± 40%; Liver microsomal stability (% parent at 30 min), human [11]: 51 ± 3 [3] % parent at 30 min; solubility ([4]; aqueous phosphate buffer): 6 µg/mL (≈ 15.7 µM); IC50 [12]: 3100 ± 600 nM |
| N#CC1(c2ccccn2)CC2CCC(C1)N2C(=O)c1csc(-c2cn[nH]c2)c1 (stereo not shown) [compound 8] | 0.03 | 291 ± 74 ng/mL | 9 ± 3 ng/mL | 15 nM |  |
| N#CC1(c2ncccn2)CC2CCC(C1)N2C(=O)c1csc(-c2cn[nH]c2)c1 (stereo not shown) [compound 9] | 0.07 | 230 ± 33 ng/mL | 15 ± 1 ng/mL | 13 ± 3 nM |  |
